28 compounds from patent US7435837B2, “Dihydrobenzofuranyl alkanamine derivatives and methods for using same” (Wyeth, priority 2003, dated 2008) can be followed below.

The target in test [1] is T1, human 5-hydroxytryptamine-2C (h5-HT2C) receptor (Homo sapiens, UniProt P28335).
T1 construct: expressed in transfected cells; host or cells: CHO (Chinese Hamster Ovary) cells; membranes
T1 sequence (P28335 33-458): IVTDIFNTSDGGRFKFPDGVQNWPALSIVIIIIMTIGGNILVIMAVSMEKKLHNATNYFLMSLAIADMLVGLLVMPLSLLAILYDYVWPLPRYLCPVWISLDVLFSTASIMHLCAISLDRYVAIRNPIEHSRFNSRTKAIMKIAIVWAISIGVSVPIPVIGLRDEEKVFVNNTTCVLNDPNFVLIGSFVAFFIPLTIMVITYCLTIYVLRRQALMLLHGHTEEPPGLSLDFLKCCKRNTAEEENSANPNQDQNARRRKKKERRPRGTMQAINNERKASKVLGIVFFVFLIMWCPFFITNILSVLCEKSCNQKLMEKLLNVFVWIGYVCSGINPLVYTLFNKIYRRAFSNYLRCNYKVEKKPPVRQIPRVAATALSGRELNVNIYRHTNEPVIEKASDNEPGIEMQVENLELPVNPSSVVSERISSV
Put plainly: [125I]DOI binding to membranes of CHO cells expressing the human 5-HT2C receptor. Particulars: [125I]DOI radioligand, CHO cell membranes, room temperature 60 min; read-out: 5-HT2C Affinity Ki.

In test [2] the target is T2, human 5-HT2C receptor (Homo sapiens, UniProt P28335).
T2 sequence (P28335 33-458): T1 sequence (P28335 33-458)
Description: 5-HT2C receptor-stimulated calcium mobilization (FLIPR) in CHO cells.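 For all read-outs here: Fluo-3-AM fluorescence read on FLIPR every 1 s, agonist added after 10 baseline reads, response taken as peak minus lowest raw fluorescence count.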 It is filed as cell-based. Particulars: for Emax: CHO, read-out: 5-HT2C Function Emax (%); for Emax / 5-HT2C Function Emax (%): percentage of the response observed with a maximally effective concentration of 5-HT; for pEC50: calcium mobilization, CHO cells stably expressing human 5-HT2C, read-out: 5-HT2C Function EC50. In general terms: A change in cytosolic calcium serves as a functional read-out for many receptors and channels.

pEC50, pKi: −log10 of the molar value.

As a reminder, the pKi is the negative decadic logarithm of the Ki, by convention in mol/L. In general, Emax refers to the greatest response seen or fitted, relative to the assay's reference. What is called pEC50 is the negative decadic logarithm of the EC50, by convention in mol/L. As to `Cc1cc2c(c(-c3cc(Cl)ccc3Cl)c1)OC(CN)C2` (racemic) [Example 300, (±)-{[7-(2,5-dichlorophenyl)-5-methyl-2,3-dihydro-1-benzofuran-2-yl]methyl}amine], the pKi in test [1] was 10.00. Moreover, in test [2], the Emax is 90% and the pEC50 was 8.52.

As for `NCC1Cc2cc(F)cc(-c3cc(Cl)ccc3Cl)c2O1` (racemic) [Example 221, (±)-{[7-(2,5-dichlorophenyl)-5-fluoro-2,3-dihydro-1-benzofuran-2-yl]methyl}amine], the pKi in test [1] is 8.85. In test [2], the Emax turned out to be 90% and the pEC50 was 8.70.

In the case of `NCC1Cc2cccc(-c3ccccc3)c2O1` (single isomer, unassigned; (+)) [Example 37], the pKi in test [1] was 9.00. Also, in test [2], the Emax turned out to be 100% and the pEC50 was 9.00.

As for `Cc1c(Cl)cc(C(C)C)c2c1CC(CN)O2` (single isomer, unassigned; (-)) [Example 22, (−)-1-(5-chloro-7-isopropyl-4-methyl-2,3-dihydro-1-benzofuran-2-yl)methanamine], in test [1], the pKi is 8.30. For the same compound, in test [2], the Emax was found to be 90% and the pEC50 was 7.60.

Regarding `NCC1Cc2cccc(-c3cc(Cl)ccc3Cl)c2O1` (single isomer, unassigned; (-)) [Example 165, (−)-{[7-(2,5-dichlorophenyl)-2,3-dihydro-1-benzofuran-2-yl]methyl}amine], in test [1], the pKi was 7.74. In addition, in test [2], the pEC50 is 7.10 and the “5-HT2C Function Emax (%)” value was 70%.

Regarding `NCC1Cc2cccc(-c3ccsc3)c2O1` (racemic) [Example 44, (±)-1-(7-thien-3-yl-2,3-dihydro-1-benzofuran-2-yl)methanamine], the pKi in test [1] is 8.52. Further, in test [2], the Emax worked out at 100% and the pEC50 is 8.15.

On to `NCC1Cc2cc(C(F)(F)F)cc(-c3ccccc3Cl)c2O1` (racemic) [Example 315, (±)-{[5-(trifluoromethyl)-7-(2-chlorophenyl)-2,3-dihydro-1-benzofuran-2-yl]methyl}amine], for which the pKi in test [1] was 7.60. Moreover, in test [2], the Emax is 90% and the pEC50 was 7.72.

As to `NCC1Cc2cc(Cl)cc(-c3ccccc3Cl)c2O1` (racemic) [Example 87, (±)-1-[5-chloro-7-(2-chlorophenyl)-2,3-dihydro-1-benzofuran-2-yl]methanamine], the pKi in test [1] was 9.10. Besides, in test [2], the Emax came to 90% and the negative logarithm of the EC50 (pEC50) was 7.70.

With `COc1ccccc1-c1cccc2c1OC(CN)C2` (single isomer, unassigned; (+)) [Example 128, (+)-1-[7-(2-methoxyphenyl)-2,3-dihydro-1-benzofuran-2-yl]methanamine], the pKi in test [1] was 7.39. In test [2], the maximal response (Emax) amounted to 70% and the pEC50 is 7.62.

On to `CNCC1Cc2cccc(-c3ccc(F)cc3)c2O1` (racemic) [Example 419, (±)-[(N-methyl-1-[7-(4-fluorophenyl)-2,3-dihydro-1-benzofuran-2-yl]methanamine], for which, in test [1], the pKi was 8.42. Moreover, in test [2], the maximum response (Emax) worked out at 80% and the pEC50 is 5.87.

Regarding `COc1ccc(-c2cccc3c2OC(CN)C3)cc1` (single isomer, unassigned; (-)) [Example 81, (−)-1-[7-(4-methoxyphenyl)-2,3-dihydro-1-benzofuran-2-yl]methanamine], the pKi in test [1] is 7.62. Further, in test [2], the pEC50 is 6.53 and the “5-HT2C Function Emax (%)” value turned out to be 50%.

On to `COc1ccc(-c2cc(C)cc3c2OC(CN)C3)cc1` (racemic) [Example 293, (±)-{[7-(4-methoxyphenyl)-5-methyl-2,3-dihydro-1-benzofuran-2-yl]methyl}amine], for which, in test [1], the pKi is 8.42. In test [2], the Emax worked out at 90% and the pEC50 was 8.15.

As for `CCNCC1Cc2cccc(-c3c(Cl)cccc3Cl)c2O1` (racemic) [Example 390, (±)-N-{[7-(2,6-dichlorophenyl)-2,3-dihydro-1-benzofuran-2-yl]methyl}ethanamine], the pKi in test [1] was 8.74. In test [2], the Emax was determined as 80% and the pEC50 is 8.70.

Turning to `COc1cc2c(c(-c3ccc(F)c(Cl)c3)c1)OC(CN)C2` (racemic) [Example 373, (±)-{[7-(3-chloro-4-fluorophenyl)-5-methoxy-2,3-dihydro-1-benzofuran-2-yl]methyl}amine], the pKi in test [1] was 7.21. In test [2], the Emax was determined as 60% and the pEC50 was 6.07.

With `CNCC1Cc2cc(F)cc(-c3cc(Cl)ccc3Cl)c2O1` (racemic) [Example 449, (±)-{[7-(2,5-dichlorophenyl)-5-fluoro-2,3-dihydro-1-benzofuran-2-yl]methyl}methylamine], in test [1], the pKi was 9.00. In test [2], the Emax was 90% and the pEC50 is 8.70.

Regarding `COc1cccc(-c2cccc3c2OC(CN)C3)c1OC` (racemic) [Example 155, (±)-{[7-(2,3-dimethoxyphenyl)-2,3-dihydro-1-benzofuran-2-yl]methyl}amine], the pKi in test [1] was 8.05. For the same compound, in test [2], the Emax turned out to be 90% and the pEC50 was 7.37.

Consider `COc1cc2c(c(-c3ccc(Cl)cc3Cl)c1)OC(CN)C2` (racemic) [Example 365, (±)-{[7-(2,4-dichlorophenyl)-5-methoxy-2,3-dihydro-1-benzofuran-2-yl]methyl}amine], for which the pKi in test [1] is 7.62. For the same compound, in test [2], the Emax was determined as 100% and the pEC50 was 7.82.

As to `NCC1Cc2cccc(C3CCCC3)c2O1` (single isomer, unassigned; (+)) [Example 10, (+)-(7-cyclopentyl-2,3-dihydro-1-benzofuran-2-yl)methylamine], in test [1], the pKi is 7.38. Besides, in test [2], the pEC50 was 6.75 and the “5-HT2C Function Emax (%)” value worked out at 60%.

As for `NCC1Cc2cc(F)cc(-c3cccnc3)c2O1` (racemic) [Example 206, (±)-[(5-fluoro-7-pyridin-3-yl-2,3-dihydro-1-benzofuran-2-yl)methyl]amine], in test [1], the pKi was 8.77. Moreover, in test [2], the Emax is 90% and the pEC50 was 8.40.

As to `Cc1cccc(-c2cc(Cl)cc3c2OC(CN)C3)c1C` (racemic) [Example 248, (±)-{[5-chloro-7-(2,3-dimethylphenyl)-2,3-dihydro-1-benzofuran-2-yl]methyl}amine], in test [1], the pKi was 8.05. Moreover, in test [2], the Emax turned out to be 80% and the pEC50 is 6.65.

As to `NCC1Cc2cccc(-c3cccc(Cl)c3)c2O1` (single isomer, unassigned; (-)) [Example 67, (−)-1-[7-(3-chlorophenyl)-2,3-dihydro-1-benzofuran-2-yl]methanamine], in test [1], the pKi was 7.08. In addition, in test [2], the pEC50 was 5.24 and the “5-HT2C Function Emax (%)” value came to 70%.

`CNCC1Cc2cccc(-c3ccccc3F)c2O1` (racemic) [Example 412, (±)-[(N-methyl-1-[7-(2-fluorophenyl)-2,3-dihydro-1-benzofuran-2-yl]methanamine]: in test [1], the pKi was 8.28. Moreover, in test [2], the Emax is 90% and the pEC50 was 7.47.

As to `CNCC1Cc2cccc(-c3c(Cl)cccc3Cl)c2O1` (racemic) [Example 433, (±)-[(N-methyl-1-[7-(2,6-dichlorophenyl)-2,3-dihydro-1-benzofuran-2-yl]methanamine], the pKi in test [1] was 8.46. Besides, in test [2], the Emax came out at 100% and the pEC50 is 9.00.

In the case of `NCC1Cc2cccc(-c3ccccc3C(F)(F)F)c2O1` (racemic) [Example 53, (±)-1-{7-[2-(trifluoromethyl)phenyl]-2,3-dihydro-1-benzofuran-2-yl}methanamine], the pKi in test [1] was 9.00. Moreover, in test [2], the Emax is 80% and the pEC50 is 7.35.

Regarding `Cc1cccc(C)c1-c1cc(C(F)(F)F)cc2c1OC(CN)C2` (racemic) [Example 338, (±)-{[7-(2,6-dimethylphenyl)-5-(trifluoromethyl)-2,3-dihydro-1-benzofuran-2-yl]methyl}amine], the pKi in test [1] was 7.85. In test [2], the Emax turned out to be 90% and the pEC50 is 7.36.

With `CNCC1Cc2cc(F)cc(-c3ccccc3F)c2O1` (racemic) [Example 438, (±)-{[5-fluoro-7-(2-fluorophenyl)-2,3-dihydro-1-benzofuran-2-yl]methyl}methylamine], the pKi in test [1] was 8.62. Further, in test [2], the Emax was determined as 70% and the pEC50 was 7.17.

For `N#Cc1cc2c(c(-c3ccccc3Cl)c1)OC(CN)C2` (racemic) [Example 312, (±)-2-(aminomethyl)-7-(2-chlorophenyl)-2,3-dihydro-1-benzofuran-5-carbonitrile], the pKi in test [1] was 7.82. In test [2], the maximal effect (Emax) came to 90% and the pEC50 was 7.60.

On to `NCC1Cc2cc(C(F)(F)F)cc(-c3cccnc3)c2O1` (racemic) [Example 343, (±)-{[7-pyridin-3-yl-5-(trifluoromethyl)-2,3-dihydro-1-benzofuran-2-yl]methyl}amine], for which the pKi in test [1] was 7.92. Also, in test [2], the Emax came out at 90% and the pEC50 was 7.31.
